Test results reported in PubChem BioAssay AID2060495 (Molecular Pharmacology Branch, DTP, NCI, 2025).
Blank lines part the entries; values can stand above or below the molecule they belong to.

Test system: 521955-158-R2-J5-PDC complex spheroid viability
Test: Anticancer human tumor 521955-158-R2-J5-PDC patient-derived pancreatic carcinoma cell line growth inhibition [GQUAD]
Details: for IC50: curve of first compound; for viability, T/C: stronger effect = lower value
How it was run: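 Viability of tumor cells grown as complex spheroids with endothelial and stromal cells, exposed to drug combinations. Top concentration at or near clinical Cmax (else 10 microM), diluted in half-log increments.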

[1] = second compound 0.0316 µM, first compound 0.0316 µM
[2] = second compound 0.0316 µM, first compound 0.1 µM
[3] = second compound 0.0316 µM, first compound 0.316 µM
[4] = second compound 0.0316 µM, first compound 1 µM
[5] = second compound 0.0316 µM, first compound 3.16 µM
[6] = second compound 0.0316 µM, first compound 10 µM
[7] = second compound 0.1 µM, first compound 0.0316 µM
[8] = second compound 0.1 µM, first compound 0.1 µM
[9] = second compound 0.1 µM, first compound 0.316 µM
[10] = second compound 0.1 µM, first compound 1 µM
[11] = second compound 0.1 µM, first compound 3.16 µM
[12] = second compound 0.1 µM, first compound 10 µM
[13] = second compound 0.316 µM, first compound 0.0316 µM
[14] = second compound 0.316 µM, first compound 0.1 µM
[15] = second compound 0.316 µM, first compound 0.316 µM
[16] = second compound 0.316 µM, first compound 1 µM
[17] = second compound 0.316 µM, first compound 3.16 µM
[18] = second compound 0.316 µM, first compound 10 µM
[19] = second compound 1 µM, first compound 0.0316 µM
[20] = second compound 1 µM, first compound 0.1 µM
[21] = second compound 1 µM, first compound 0.316 µM
[22] = second compound 1 µM, first compound 1 µM
[23] = second compound 1 µM, first compound 3.16 µM
[24] = second compound 1 µM, first compound 10 µM
[25] = second compound 3.16 µM, first compound 0.0316 µM
[26] = second compound 3.16 µM, first compound 0.1 µM
[27] = second compound 3.16 µM, first compound 0.316 µM
[28] = second compound 3.16 µM, first compound 1 µM
[29] = second compound 3.16 µM, first compound 3.16 µM
[30] = second compound 3.16 µM, first compound 10 µM
[31] = second compound 10 µM, first compound 0.0316 µM
[32] = second compound 10 µM, first compound 0.1 µM
[33] = second compound 10 µM, first compound 0.316 µM
[34] = second compound 10 µM, first compound 1 µM
[35] = second compound 10 µM, first compound 3.16 µM
[36] = second compound 10 µM, first compound 10 µM
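Also: spheroids exposed to agents for one week before reading.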
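For viability, T/C in this document: 100% = DMSO vehicle control viability.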

IC50 (second compound 0.0316 µM): 1190 nM
IC50 (second compound 0.1 µM): 1540 nM
IC50 (second compound 0.316 µM): < 31.6 nM
IC50 (second compound 1 µM): < 31.6 nM
IC50 (second compound 3.16 µM): < 31.6 nM
IC50 (second compound 10 µM): < 31.6 nM
Structure (SMILES): O=c1[nH]cc(F)c(=O)[nH]1 + Cc1cnc(CNC(=O)c2c(=O)c3ccc(N4CCCN(C)CC4)nc3n3c2sc2ccccc23)cn1
viability, T/C [1]: 88.7%
viability, T/C [2]: 70.5%
viability, T/C [3]: 76.8%
viability, T/C [4]: 51.6%
viability, T/C [5]: 31.6%
viability, T/C [6]: 16.7%
viability, T/C [7]: 65.2%
viability, T/C [8]: 56.2%
viability, T/C [9]: 56.5%
viability, T/C [10]: 62.2%
viability, T/C [11]: 33.4%
viability, T/C [12]: 22.4%
viability, T/C [13]: 36.7%
viability, T/C [14]: 56.3%
viability, T/C [15]: 30.3%
viability, T/C [16]: 31%
viability, T/C [17]: 20.2%
viability, T/C [18]: 17.8%
viability, T/C [19]: 23.2%
viability, T/C [20]: 22.5%
viability, T/C [21]: 20.1%
viability, T/C [22]: 16.6%
viability, T/C [23]: 17.8%
viability, T/C [24]: 14.1%
viability, T/C [25]: 18.1%
viability, T/C [26]: 19.5%
viability, T/C [27]: 17.8%
viability, T/C [28]: 19.1%
viability, T/C [29]: 17%
viability, T/C [30]: 11.7%
viability, T/C [31]: 18.7%
viability, T/C [32]: 21.7%
viability, T/C [33]: 17.3%
viability, T/C [34]: 14.2%
viability, T/C [35]: 15.5%
viability, T/C [36]: 12.1%

Structure (SMILES): CCc1c2c(nc3ccc(O)cc13)-c1cc3c(c(=O)n1C2)COC(=O)[C@]3(O)CC + CN(C)c1ccc(Nc2c3ccc(NC(=O)CCN4CCCC4)cc3nc3cc(NC(=O)CCN4CCCC4)ccc23)cc1
IC50 (second compound 0.0316 µM): 3.29 nM
IC50 (second compound 0.1 µM): 3.03 nM
IC50 (second compound 0.316 µM): 2.54 nM
IC50 (second compound 1 µM): 2.41 nM
IC50 (second compound 3.16 µM): 2.28 nM
IC50 (second compound 10 µM): 1.54 nM
viability, T/C (second compound 0.0316 µM, first compound 0.000999 µM): 74.6%
viability, T/C (second compound 0.0316 µM, first compound 0.00316 µM): 49.6%
viability, T/C (second compound 0.0316 µM, first compound 0.00999 µM): 32.4%
viability, T/C [1]: 15.1%
viability, T/C (second compound 0.0316 µM, first compound 0.0999 µM): 11.6%
viability, T/C [3]: 9.29%
viability, T/C (second compound 0.1 µM, first compound 0.000999 µM): 80.2%
viability, T/C (second compound 0.1 µM, first compound 0.00316 µM): 46.8%
viability, T/C (second compound 0.1 µM, first compound 0.00999 µM): 31.7%
viability, T/C [7]: 18%
viability, T/C (second compound 0.1 µM, first compound 0.0999 µM): 9.85%
viability, T/C [9]: 7.27%
viability, T/C (second compound 0.316 µM, first compound 0.000999 µM): 84.6%
viability, T/C (second compound 0.316 µM, first compound 0.00316 µM): 39.3%
viability, T/C (second compound 0.316 µM, first compound 0.00999 µM): 25.3%
viability, T/C [13]: 12.8%
viability, T/C (second compound 0.316 µM, first compound 0.0999 µM): 11.6%
viability, T/C [15]: 4.59%
viability, T/C (second compound 1 µM, first compound 0.000999 µM): 89.1%
viability, T/C (second compound 1 µM, first compound 0.00316 µM): 33.5%
viability, T/C (second compound 1 µM, first compound 0.00999 µM): 25.4%
viability, T/C [19]: 15.4%
viability, T/C (second compound 1 µM, first compound 0.0999 µM): 9.81%
viability, T/C [21]: 6.13%
viability, T/C (second compound 3.16 µM, first compound 0.000999 µM): 75.5%
viability, T/C (second compound 3.16 µM, first compound 0.00316 µM): 33.7%
viability, T/C (second compound 3.16 µM, first compound 0.00999 µM): 30.4%
viability, T/C [25]: 17.9%
viability, T/C (second compound 3.16 µM, first compound 0.0999 µM): 7.36%
viability, T/C [27]: 8.33%
viability, T/C (second compound 10 µM, first compound 0.000999 µM): 56.9%
viability, T/C (second compound 10 µM, first compound 0.00316 µM): 37.8%
viability, T/C (second compound 10 µM, first compound 0.00999 µM): 25%
viability, T/C [31]: 11.8%
viability, T/C (second compound 10 µM, first compound 0.0999 µM): 5.13%
viability, T/C [33]: 6.11%

Structure (SMILES): CC1COCCN1c1cc(-c2ccnn2C)c2ccnc(-c3ccn[nH]3)c2n1 (stereo unspecified) + Cc1[nH]c2ccc(F)cc2c1-c1nc2c3cccnc3c3ncccc3c2[nH]1
IC50 (second compound 0.0316 µM): 55.1 nM
IC50 (second compound 0.1 µM): 52.6 nM
IC50 (second compound 0.316 µM): 56.8 nM
IC50 (second compound 1 µM): 59 nM
IC50 (second compound 3.16 µM): 58.4 nM
IC50 (second compound 10 µM): 53.5 nM
viability, T/C [1]: 81%
viability, T/C [2]: 16.8%
viability, T/C [3]: 10.3%
viability, T/C [4]: 13.1%
viability, T/C [5]: 18.4%
viability, T/C [6]: 18.2%
viability, T/C [7]: 73.7%
viability, T/C [8]: 20.6%
viability, T/C [9]: 8.98%
viability, T/C [10]: 12.4%
viability, T/C [11]: 18.1%
viability, T/C [12]: 18.8%
viability, T/C [13]: 84.4%
viability, T/C [14]: 16.7%
viability, T/C [15]: 13.3%
viability, T/C [16]: 12.7%
viability, T/C [17]: 18.5%
viability, T/C [18]: 19.8%
viability, T/C [19]: 90.1%
viability, T/C [20]: 16.1%
viability, T/C [21]: 9.88%
viability, T/C [22]: 11.1%
viability, T/C [23]: 19.8%
viability, T/C [24]: 21.6%
viability, T/C [25]: 88.1%
viability, T/C [26]: 15.8%
viability, T/C [27]: 9.58%
viability, T/C [28]: 11.2%
viability, T/C [29]: 21.6%
viability, T/C [30]: 25%
viability, T/C [31]: 77.7%
viability, T/C [32]: 16%
viability, T/C [33]: 10.9%
viability, T/C [34]: 15.9%
viability, T/C [35]: 19.3%
viability, T/C [36]: 24%
